Assay results reported in patent US20260022341A1, “METHOD OF GENERATING A HOMOCELLULAR PROGENITOR CELL CULTURE FROM A HETEROCELLULAR TISSUE SAMPLE” (MOSA MEAT B.V., priority 2022, published 2026).
Entries after “also recorded” stand apart in the source; their conditions may differ.

B1: PDGF-bb: growth factor of the base medium (protein, UniProt P01127 82-190, looked up)
Platelet-derived growth …: SLGSLTIAEPAMIAECKTRTEVFEISRRLIDRTNANFLVWPPCVEVQRCSGCCNNRNVQCRPTQVQLRPVQVRKIEIVRKKPIFKKATVTLEDHLACKCETVAAARPVT
B2: vitronectin: extracellular matrix protein used as tissue culture vessel coating (protein, UniProt P04004 20-478, looked up)
Vitronectin: DQESCKGRCTEGFNVDKKCQCDELCSYYQSCCTDYTAECKPQVTRGDVFTMPEDEYTVYDDGEEKNNATVHEQVGGPSLTSDLQAQSKGNPEQTPVLKPEEEAPAPEVGASKPEGIDSRPETLHPGRPQPPAEEELCSGKPFDAFTDLKNGSLFAFRGQYCYELDEKAVRPGYPKLIRDVWGIEGPIDAAFTRINCQGKTYLFKGSQYWRFEDGVLDPDYPRNISDGFDGIPDNVDAALALPAHSYSGRERVYFFKGKQYWEYQFQHQPSQEECEGSSLSAVFEHFAMMQRDSWEDIFELLFWGRTSAGTRQPQFISRDWHGVPGQVDAAMAGRIYISGMAPRPSLAKKQRFRHRNRKGYRSQRGHSRGRNQNSRRPSRATWLSLFSSEESNLGANNYDDYRMDWLVPATCEPIQSVFFFSGDKYYRVNLRTRRVDTVDPPYPRSIAQYWLGCPAPGHL

What was measured:
Assay type in all cases: cell-based, bovine
SCs and FAPs [1] = experiment: Compound screening: ratio of SCs in a cell culture of SCs and FAPs after one passage (flow cytometry); details: SFM1 base medium, HGF 10×=50 ng/ml, IC 50 μM, HC 138 nM, T3 30 nM, DAPT 5 or 10 μM, FGF2 10×=100 ng/ml, SB203580 10 μM, IL6 20 ng/ml, PDGF-bb 10×=50 ng/ml
Protocol: Excess visible fat and fibrous tissue was removed prior to dissociation, and muscle fibers were dissociated using collagenase AFC A (Worthington, CLSAFA, 2000U/ml) for 45 minutes at 37° C. Muscle isolates were incubated in 1× ACK erythrocyte lysis buffer for 1 minute at room temperature. Cells were resuspended in a serum-free proliferation medium (SFM1 medium) and immediately seeded into fibronectin (4 μg cm-2 bovine fibronectin; F1141, Merck/Sigma) coated tissue culture plates, and pre-cultured at 37° C. for 72 hours. The serum-free proliferation medium that was used is as disclosed in WO 2021/158103, the contents of which are incorporated herein by reference, and is referred to therein as “SFM1” and contains: albumin (5 mg/ml), somatotropin (2 ng/ml), L-Ascorbic acid 2-phosphate (50 μg/ml), hydrocortisone (36 ng/ml), a-linolenic acid (1 μg/ml), insulin (10 μg/ml), transferrin (5.5 μg/ml), sodium selenite (0.0067 μg/ml), ethanolamine (2 μg/ml), L-alanyl-L-glutamine or glutamine (2 mM), IL-6 (5 ng/ml), FGF2 also referred to as bFGF (10 ng/ml), IGF1 (100 ng/ml), VEGF (10 ng/ml), HGF (5 ng/ml), PDGF-bb (10 ng/ml) and DMEM/F12 basal medium. In the experiments described herein, the SFM1 medium is also referred to as control (Ctrl) or base medium.
After 72 hours of pre-culture, FAPS were sorted using a MACSQuant Tyto sorter (Miltenyi) based on absence of expression of JAM1, CD45, and integrin alpha 7 (ITGA7), and the positive expression of integrin alpha 5 (ITGA5). SCs were sorted based on the absence of expression of JAM1, CD45, ITGA5, and the positive expression of ITGA7.
After FACS sorting, FAP cells and SC cells were cultured on collagen Type I coated tissue culture flasks at 37° C. and 5% CO2 in a serum-free proliferation medium (SFM1). Purities of SCs and FAPs were assessed at the end of each passage by measuring the expression of ITGA7 and ITGA5 via flow cytometry as described below.
Sorted SCs and FAPs were stained with ITGA7-PE and […]. Subsequently, cells were washed and analyzed on a MACSQuant 10 flow analyzer (Miltenyi). Unstained cells were used as a negative control, and to define gating parameters. For the compound screenings (FIG. 2A), percentage of SCs relative to FAPs was determined after one culture passage.
These informed the selection of compounds to favor the proliferation of either of the two cell types. Increasing or decreasing the concentration of growth factors targeting these receptors, or adding compounds that target downstream pathways, altered the growth of SCs relative to FAPs (FIG. 2A, FIG. 2B). As only SCs and FAPs were present in the cell cultures of FIG. 2A and 2B, measuring the relative amount (ratio) of SCs likewise provides information about the relative amount (ratio) of FAPs in the respective media. The ratio of SCs in the respective cell media was normalized against a control ratio (Ctrl; set at 1) which means that a promotion of SCs results in an increase of SCs compared to the control culture (>1), whereas a relative decrease of SCs in the medium compared to the control culture (<1) denotes at the same time for a promotion of FAP proliferation in the respective media.

SCs and FAPs [2] = experiment: Long-term proliferation assay of SC/FAP mixtures on Laminin 521 with different media (FIGS. 4A-4C); details: Laminin 521 coating
Protocol: (§1) Cells were isolated, purified and cultured as described in Example 1. For long-term proliferation assays, mixtures of SCs and FAPs were cultured on different coatings (FIG. 3) or on Laminin 521 with different media (FIGS. 4A-4C). After every passage, the ratio of SCs to FAPs was measured as the ratio of ITGA7+/ITGA5−cells (SCs) to ITGA7−/ITGA5+cells (FAPs) via flow cytometry, as described in Example 1.
Using Laminin 521 as a coating, we further used the previously identified compounds to adapt the base media (Ctrl) to favor the growth of SCs over FAPs (FIGS. 4A-4C).

SCs and FAPs [3] = experiment: Long-term proliferation assay of SC/FAP mixtures on different coatings (FIG. 3); details: compound applied as culture vessel coating, measured after every passage by ITGA7/ITGA5 flow cytometry
Protocol: as §1
Using long-term proliferation assays, combined with flow cytometry for ITGA7/ITGA5, we tested different compounds including extracellular matrix proteins tissue culture vessel coatings, and measured percentage of SCs over time in a cell culture that contains SCs and FAPs.

[4] = single media adaptation of base media (Ctrl): 10× HGF or T3 added

Row | Molecule | growth of SCs relative to FAPs (ratio of SCs normalized against control ratio, Ctrl set at 1) (SCs and FAPs [1]) | percentage of SCs in total cells (SCs and FAPs) over long-term proliferation (SCs and FAPs [3]) | other results
1 | hepatocyte growth factor [HGF] | specifically promoted the proliferation of SCs | – | relative growth/proliferation of SCs compared to FAPs (SCs and FAPs [2]; [4]): promoted the relative growth/proliferation of SCs compared to FAPs
2 | N[C@@H](Cc1cc(I)c(Oc2ccc(O)c(I)c2)c(I)c1)C(=O)O [T3, Triiodothyronine, reference compound] | specifically promoted the proliferation of SCs | – | relative growth/proliferation of SCs compared to FAPs (SCs and FAPs [2]; [4]): promoted the relative growth/proliferation of SCs compared to FAPs
3 | C[S+]([O-])c1ccc(-c2nc(-c3ccc(F)cc3)c(-c3ccncc3)[nH]2)cc1 (stereo not shown) [SB203580, 4-{4-(4-Fluorophenyl)-2-[4-(methanesulfinyl)phenyl]-1H-imidazol-5-yl} pyridine] | specifically promoted the proliferation of SCs | – | –
4 | Interleukin 6 [IL-6] | specifically promoted the proliferation of FAPs | – | –
5 | Laminin 521: extracellular matrix protein used as tissue culture vessel coating | – | the percentage of SCs remained high | percentage of SCs in total cells (SCs and FAPs) over long-term proliferation (SCs and FAPs [3]; listed as laminin 521): allow for maintaining high percentages of SCs during proliferation
6 | fibronectin | – | the proportion of FAPs increased quickly over 3 passages; also recorded: favor proliferation of FAPs | –
7 | C[C@H](NC(=O)Cc1cc(F)cc(F)c1)C(=O)N[C@H](C(=O)OC(C)(C)C)c1ccccc1 [DAPT] | specifically promoted the proliferation of SCs | – | –
8 | C[C@]12CCC(=O)C=C1CC[C@@H]1[C@@H]2[C@@H](O)C[C@@]2(C)[C@H]1CC[C@]2(O)C(=O)CO [HC, Hydrocortisone] | specifically promoted the proliferation of SCs | – | –
9 | COc1ccc2c(c1)c(CC(=O)O)c(C)n2C(=O)c1ccc(Cl)cc1 [IC, Indomethacin] | specifically promoted the proliferation of SCs | – | –
10 | collagen | – | the proportion of FAPs increased quickly over 3 passages | percentage of SCs in total cells (SCs and FAPs) over long-term proliferation (SCs and FAPs [3]; listed as Collagen): favor proliferation of FAPs
11 | fibroblast growth factor 2 [FGF2] | specifically promoted the proliferation of SCs | – | –
12 | B1 | specifically promoted the proliferation of FAPs | – | relative growth/proliferation of SCs compared to FAPs (SCs and FAPs [2]; single media adaptation 0× PDGF-bb (PDGF-bb absent from base media)): promoted the relative growth/proliferation of SCs compared to FAPs
13 | B2 | – | the percentage of SCs remained high | percentage of SCs in total cells (SCs and FAPs) over long-term proliferation (SCs and FAPs [3]; listed as Vitronectin): allow for maintaining high percentages of SCs during proliferation
